Experimental data from the supplement of paper PMC10307832.

Assays:
Test in all cases: relative viability (nuclei count vs DMSO), 5 days (fraction); higher = more cells survive
[1] = compound: OCc1c[nH]c2ccccc12 [Indole-3-carbinol] + Cc1nc(Nc2ncc(C(=O)Nc3c(C)cccc3Cl)s2)cc(N2CCN(CCO)CC2)n1 [Dasatinib] (partner 0.075 µM)
How it was run: (§1)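 Medians of duplicate plates are given as relative viability. That measure is the nuclei count in treated wells divided by the count in vehicle wells. Counts were taken on 4× images of lung cancer cell lines in 1536-well plates, 5 days after pin-tool dosing the day after seeding with one drug alone or a fixed anchor-drug dose plus five library-drug doses (not always all listed) in √10 steps.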

[2] = compound: OCc1c[nH]c2ccccc12 [Indole-3-carbinol] + CC(=O)Nc1cccc(-n2c(=O)n(C3CC3)c(=O)c3c(Nc4ccc(I)cc4F)n(C)c(=O)c(C)c32)c1 [Trametinib] (partner 0.02 µM)
How it was run: as §1

[3] = compound: OCc1c[nH]c2ccccc12 [Indole-3-carbinol] + CC1(C)CCC(c2ccc(Cl)cc2)=C(CN2CCN(c3ccc(C(=O)NS(=O)(=O)c4ccc(N[C@H](CCN5CCOCC5)CSc5ccccc5)c(S(=O)(=O)C(F)(F)F)c4)cc3)CC2)C1 [Navitoclax] (partner 0.5 µM)
How it was run: as §1

[4] = compound: OCc1c[nH]c2ccccc12 [Indole-3-carbinol] + CS(=O)(=O)CCNCc1ccc(-c2ccc3ncnc(Nc4ccc(OCc5cccc(F)c5)c(Cl)c4)c3c2)o1 [Lapatinib] (partner 2 µM)
How it was run: as §1

[5] = compound: OCc1c[nH]c2ccccc12 [Indole-3-carbinol] + COc1cc2c(Oc3ccc(NC(=O)C4(C(=O)Nc5ccc(F)cc5)CC4)cc3F)ccnc2cc1OCCCN1CCOCC1 [Foretinib] (partner 0.25 µM)
How it was run: as §1

Row | Cell Line | relative viability ([1]; first compound 0.253 µM) | relative viability ([1]; first compound 0.8 µM) | relative viability ([1]; first compound 2.53 µM) | relative viability ([1]; first compound 8 µM) | relative viability ([2]; first compound 0.253 µM) | relative viability ([2]; first compound 0.8 µM) | relative viability ([2]; first compound 2.53 µM) | relative viability ([2]; first compound 8 µM) | relative viability ([3]; first compound 0.253 µM) | relative viability ([3]; first compound 0.8 µM) | relative viability ([3]; first compound 2.53 µM) | relative viability ([3]; first compound 8 µM) | relative viability ([4]; first compound 0.253 µM) | relative viability ([4]; first compound 0.8 µM) | relative viability ([4]; first compound 2.53 µM) | relative viability ([4]; first compound 8 µM) | relative viability ([5]; first compound 0.253 µM) | relative viability ([5]; first compound 0.8 µM) | relative viability ([5]; first compound 2.53 µM) | relative viability ([5]; first compound 8 µM)
1 | HCC-827 | 0.338 | 0.315 | 0.316 | 0.357 | 0.516 | 0.542 | 0.505 | 0.533 | 1.04 | 1.09 | 1.05 | 0.947 | 0.202 | 0.18 | 0.227 | 0.191 | 1.07 | 1.02 | 1.03 | 1.1
2 | HOP-62 | 0.701 | 0.693 | 0.719 | 0.651 | 0.348 | 0.373 | 0.358 | 0.32 | 1.09 | 0.817 | 1.28 | 0.851 | 0.957 | 0.874 | 1.11 | 0.966 | 1.12 | 1.23 | 1.16 | 1.05
3 | IA-LM | – | – | – | – | – | – | – | – | 0.811 | 0.896 | 0.858 | 0.732 | 0.842 | 0.902 | 0.837 | 0.783 | 1.07 | 1.37 | 1.11 | 1.09
4 | LC-2-ad | 0.657 | 0.735 | 0.589 | 0.595 | 0.893 | 0.879 | 0.897 | 0.869 | 0.644 | 0.553 | 0.376 | 0.399 | 0.977 | 0.974 | 0.893 | 0.938 | 0.921 | 0.852 | 1.05 | 0.889
5 | LCLC-97TM1 | 0.835 | 0.949 | 0.944 | 0.908 | 0.215 | 0.215 | 0.178 | 0.23 | 0.408 | 0.387 | 0.499 | 0.465 | 0.599 | 0.935 | 0.911 | 0.582 | 0.982 | 0.973 | 1.03 | 0.983
6 | LCLC-103H | 0.416 | 0.489 | 0.428 | 0.441 | 0.701 | 0.614 | 0.651 | 0.571 | – | – | – | – | – | – | – | – | 0.691 | 0.783 | 0.669 | 0.639
7 | LK-2 | 0.262 | 0.297 | 0.299 | 0.273 | 0.674 | 0.538 | 0.812 | 0.732 | 0.777 | 0.769 | 1.1 | 0.821 | 0.883 | 0.864 | 1.13 | 1.04 | 1.39 | 1.2 | 1.42 | 1.07
8 | LOU-NH91 | 0.621 | 0.573 | 0.585 | 0.535 | 0.81 | 0.747 | 0.788 | 0.802 | 0.71 | 0.599 | 0.673 | 0.74 | 0.762 | 0.706 | 0.748 | 0.771 | 0.927 | 0.964 | 0.963 | 0.924
9 | LU99A | 0.504 | 0.587 | 0.515 | 0.485 | 0.5 | 0.517 | 0.521 | 0.545 | 0.802 | 0.847 | 0.832 | 0.73 | 0.893 | 0.968 | 0.973 | 0.89 | 0.828 | 0.87 | 0.769 | 0.777
